Laboratory results from the supplement of paper PMC10307832.

Assays:
Experiment in all cases: relative viability (nuclei count vs DMSO), 5 days (fraction); higher = more cells survive
[1] = compound: C[C@]12O[C@H](C[C@]1(O)CO)n1c3ccccc3c3c4c(c5c6ccccc6n2c5c31)CNC4=O [Lestaurtinib] + Nc1ncn([C@H]2C[C@H](O)[C@@H](CO)O2)c(=O)n1 [Decitabine] (partner 2 µM)
Method in brief: (§1)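 Lung cancer cell lines, seeded in 1536-well plates, were treated the following day by pin tool with a single drug or with five library-drug doses (not always all listed) in √10 steps on top of a fixed anchor-drug dose. Cells were fixed and nuclei stained in one step after 5 days, and nuclei were counted. Relative viability is the nuclei count for treated wells divided by that for vehicle wells, reported as medians of duplicate plates.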

TPCA-1 + OSI-027 = compound: C1=CC(=CC=C1C2=CC(=C(S2)NC(=O)N)C(=O)N)F [TPCA-1] + COc1cccc2cc(-c3nc([C@H]4CC[C@H](C(=O)O)CC4)n4ncnc(N)c34)[nH]c12 [OSI-027] (partner 0.5 µM)
Method in brief: as §1

[2] = compound: C1/C(=C\C2=CC=CS2)/C(=O)/C(=C/C3=CC=CS3)/C1 + Cc1cc(Nc2cc(N3CCN(C)CC3)nc(Sc3ccc(NC(=O)C4CC4)cc3)n2)n[nH]1 [Tozasertib] (partner 0.1 µM)
Method in brief: as §1

[3] = compound: C[C@]12O[C@H](C[C@]1(O)CO)n1c3ccccc3c3c4c(c5c6ccccc6n2c5c31)CNC4=O [Lestaurtinib] + C[C@]1(O)C[C@@H](c2nc(-c3ccc4ccc(-c5ccccc5)nc4c3)c3c(N)nccn32)C1 [Linsitinib] (partner 1 µM)
Method in brief: as §1

Row | Cell Line | relative viability ([1]; first compound 0.005 µM) | relative viability ([1]; first compound 0.01581 µM) | relative viability ([1]; first compound 0.05 µM) | relative viability ([1]; first compound 0.1581 µM) | relative viability ([1]; first compound 0.5 µM) | relative viability (TPCA-1 + OSI-027; first compound 0.04 µM) | relative viability (TPCA-1 + OSI-027; first compound 0.1265 µM) | relative viability (TPCA-1 + OSI-027; first compound 0.4 µM) | relative viability (TPCA-1 + OSI-027; first compound 1.265 µM) | relative viability (TPCA-1 + OSI-027; first compound 4 µM) | relative viability ([2]; first compound 0.2 µM) | relative viability ([2]; first compound 0.6325 µM) | relative viability ([2]; first compound 2 µM) | relative viability ([2]; first compound 6.325 µM) | relative viability ([2]; first compound 20 µM) | relative viability ([3]; first compound 0.005 µM) | relative viability ([3]; first compound 0.01581 µM) | relative viability ([3]; first compound 0.05 µM) | relative viability ([3]; first compound 0.1581 µM) | relative viability ([3]; first compound 0.5 µM)
1 | SW 900 | 0.405 | 0.372 | 0.451 | 0.624 | 0.541 | 0.705 | 0.576 | 0.768 | 0.463 | 0.475 | 0.514 | 0.567 | 0.558 | 0.618 | 0.584 |  |  |  |  | 
2 | NCI-H1944 | 0.419 | 0.481 | 0.442 | 0.463 | 0.317 | 0.482 | 0.398 | 0.416 | 0.368 | 0.318 | 0.282 | 0.248 | 0.259 | 0.241 | 0.236 | 1.14 | 1.14 | 0.717 | 0.555 | 0.634
3 | NCI-H727 | 0.957 | 0.87 | 0.882 |  | 0.579 | 0.603 | 0.43 | 0.664 | 0.369 | 0.541 | 0.725 | 0.619 | 0.627 | 0.478 | 0.536 | 0.306 | 0.255 | 0.28 | 0.285 | 0.18
4 | NCI-H1650 | 0.441 | 0.623 | 0.457 | 0.506 | 0.54 | 0.639 |  | 0.682 | 0.798 | 0.531 | 0.492 | 0.445 | 0.395 | 0.435 | 0.343 |  |  |  |  | 
5 | HCC-827 | 0.298 | 0.38 | 0.331 | 0.367 | 0.282 | 0.793 | 0.782 | 0.729 | 0.706 | 0.503 | 0.414 | 0.405 | 0.441 | 0.44 | 0.503 | 0.913 | 0.996 | 0.87 | 0.857 | 0.762
6 | HCC-366 | 0.408 | 0.343 | 0.378 | 0.365 | 0.222 | 1.07 | 0.8 | 0.914 | 0.52 | 0.0324 | 0.105 | 0.0974 | 0.101 | 0.0969 | 0.0897 | 0.678 | 0.694 | 0.28 | 0.257 | 0.109
7 | HARA | 0.699 | 0.749 | 0.613 | 0.513 | 0.214 | 0.811 | 0.454 | 0.627 | 0.355 | 0.131 | 0.121 | 0.123 | 0.116 | 0.101 | 0.0981 | 1.02 | 1.09 | 0.648 | 0.453 | 0.198
8 | NCI-H322M | 0.755 | 0.784 |  | 0.647 | 0.756 | 0.567 | 0.534 | 0.564 | 0.581 | 0.382 | 0.533 | 0.439 | 0.474 | 0.454 | 0.483 | 0.853 | 0.649 | 0.375 | 0.425 | 0.392
9 | LXF-289 | 0.312 | 0.428 | 0.374 | 0.364 | 0.315 | 0.86 | 0.674 | 0.763 | 0.603 | 0.347 | 0.196 | 0.207 | 0.193 | 0.151 | 0.178 | 0.967 | 0.964 | 0.741 | 0.802 | 0.197
10 | PC-3 [JPC-3] | 0.814 | 0.829 | 0.915 | 0.816 | 0.733 | 0.83 | 0.702 | 0.73 | 0.654 | 0.615 | 0.924 | 0.843 | 0.824 | 0.746 | 0.896 | 1.02 | 0.954 | 0.951 | 0.87 | 1
11 | CAL-12T |  |  |  |  |  | 0.678 | 0.614 | 0.664 | 0.523 | 0.185 | 0.334 | 0.32 | 0.356 | 0.256 | 0.309 | 0.805 | 0.84 | 0.774 | 0.565 | 0.416
12 | COR-L 105 | 0.687 | 0.663 | 0.582 | 0.505 | 0.385 | 0.646 | 0.602 | 0.707 | 0.649 | 0.396 | 0.337 | 0.33 | 0.316 |  | 0.407 | 1.11 | 0.873 | 0.692 | 0.502 | 0.337
13 | NCI-H2347 | 0.587 | 0.651 | 0.57 | 0.512 | 0.496 | 0.442 | 0.483 | 0.43 | 0.346 | 0.518 | 0.666 | 0.574 | 0.596 |  | 0.738 | 1.06 | 1.05 | 0.86 | 0.575 | 0.55
14 | NCI-H2126 | 0.582 | 0.593 | 0.623 | 0.536 | 0.553 | 0.623 | 0.961 | 0.786 | 0.685 | 0.616 | 0.888 | 0.831 | 0.878 | 0.814 | 0.798 | 0.725 | 0.735 | 0.573 | 0.605 | 0.585
